From PMC7582667, “A Series of Isatin-Hydrazones with Cytotoxic Activity and CDK2 Kinase Inhibitory Activity: A Potential Type II ATP Competitive Inhibitor” (Molecules, 2020)
Several values for one entry are separate records, joined by “and”; a condition that tells them apart may be missing. Equal entries are not always repeated.

Columns and labels:
[1] = tested on: MCF7 (human breast adenocarcinoma) cell lines; experiment: MTT cytotoxicity assay, MCF7; assay type: cell-based; conditions: MCF7 cells, triplicates
Experimental: (§1) The cytotoxicity of the synthesized compounds was evaluated by MTT assay, as previously described. Two cancer cell lines, MCF7 (human breast adenocarcinoma) and A2780 (human ovary adenocarcinoma), were used in this study, which were obtained from the ATCC (Rockville, MD, USA). They were sub-cultured in RPMI-1640 media (supplemented with 10% FBS and 1% antibiotics) at 37 °C and 5% CO2. Additionally, compounds were prepared at the same medium to obtain serial dilutions (50, 25, 19,1 and 0.1 µM). The two cell lines were separately cultured in 96-well plates (3 × 10^3/well) and incubated at 37 °C overnight. The following day, before treating the cells with the compounds, each well of the T0 plate was treated with 50 μL MTT solution (2 mg/mL in phosphate buffered saline) and then incubated for 2–4 h. The media were aspirated, and the formazan crystals were solubilized by adding 150 µL DMSO. Absorbance was read on a multi-plate reader (BioRad) at […]. Optical density of the purple formazan A550 was proportional to the number of viable cells. […] The data were obtained from triplicates and analyzed using statistical software.

[2] = tested on: A2780 (human ovary adenocarcinoma) cell lines; experiment: MTT cytotoxicity assay, A2780; assay type: cell-based; conditions: A2780 cells; for IC50: Homo sapiens, A2780, MTT assay, triplicates; for inhibitory activity against A2780 cell lines (in words): MTT assay
Experimental: as §1

CDK2/CyclinA2 = target: T1, CDK2/CyclinA2 (Homo sapiens, UniProt P24941); experiment: In vitro CDK2 inhibitory activity (CDK2 Assay Kit, Kinase-Glo MAX luminescence); assay type: biochemical; conditions: triplicate measurements, read-out: CDK2 Protein Kinase (IC50 in µM)
T1 construct: purchased #79599
Experimental: The CDK2 Assay Kit is designed to measure CDK2/CyclinA2 activity for screening and profiling applications, using Kinase-Glo® MAX as a detection reagent. The CDK2 Assay Kit comes in a convenient 96-well format, with enough purified recombinant CDK2/CyclinA2 enzyme, CDK substrate peptide, ATP and kinase assay buffer for 100 enzyme reactions. […] The CDK2/CyclinA2 activity at a single dose concentration of 10μM was performed, where the Kinase-Glo MAX luminescence kinase assay kit (Promega#V6071) was used. The compounds were diluted in 10% DMSO and 5 μL of the dilution was added to a 50 μL reaction so that the final concentration of DMSO was 1% in all of the reactions. All of the enzymatic reactions were conducted at 30 °C for 40 min. The 50 μL reaction mixture contained 40 mM Tris, pH 7.4, 10 mM MgCl2, 0.1 mg/mL BSA, 1 mM DTT, […], Kinase substrate and the enzyme (CDK2/CyclinA2). After the enzymatic reaction, 50 μL of Kinase-Glo® MAX Luminescence kinase assay solution was added to each reaction and the plates were incubated for 5 min at room temperature. Luminescence signal was measured using a Bio Tek Synergy 2 microplate reader.

Structure (SMILES)	melting point [°C]	IC50 (CDK2/CyclinA2)	IC50 [1] [µM]	IC50 [2] [µM]	inhibitory activity against A2780 cell lines (in words) [2]
O=C1Nc2ccccc2C1=NN=Cc1c(F)cccc1Cl [Compound 4k, 3-((2-Chloro-6-fluorobenzylidene)hydrazono)indolin-2-one]		0.3 µM and 0.301 µM	3.56 ± 0.31	27 ± 3.2	a little inhibitory activity
O=C1Nc2ccccc2C1=NN=Cc1cccc(Br)c1 [Compound 4f, 3-((3-Bromobenzylidene)hydrazono)indolin-2-one]	182 to 183		9.07 ± 0.59	25 ± 2.82	a little inhibitory activity
COc1cccc2c1C(=O)c1c(O)c3c(c(O)c1C2=O)C[C@@](O)(C(=O)CO)C[C@@H]3O[C@H]1C[C@H](N)[C@H](O)[C@H](C)O1 [Doxorubicin, reference compound]			3.1 ± 0.29	0.2 ± 0.03	
Cc1ccc(C=NN=C2C(=O)Nc3ccccc32)cc1 [Compound 4c, 3-((4-Methylbenzylidene)hydrazono)indolin-2-one]	230 to 231		32.5 ± 0.52	> 50	
Cc1cccc(C=NN=C2C(=O)Nc3ccccc32)c1 [Compound 4b, 3-((3-Methylbenzylidene)hydrazono)indolin-2-one]	183 to 184		14.7	> 50	
O=C1Nc2ccccc2C1=NN=Cc1c(Cl)cccc1Cl [Compound 4j, 3-((2,6-Dichlorobenzylidene)hydrazono)indolin-2-one]	286 to 287	0.245 µM and 0.246 µM	1.51 ± 0.09	26 ± 2.24	a little inhibitory activity

Continued, in another order:

melting point [°C]	IC50 (CDK2/CyclinA2)	Structure (SMILES)	IC50 [1] [µM]	IC50 [2] [µM]	inhibitory activity against A2780 cell lines (in words) [2]
233 to 234		O=C1Nc2ccccc2C1=NN=Cc1ccccc1Br [Compound 4e, 3-((2-Bromobenzylidene)hydrazono)indolin-2-one]	5.46 ± 0.71	19 ± 2.52	a little inhibitory activity
204 to 205		CSc1ccc(C=NN=C2C(=O)Nc3ccccc32)cc1 [Compound 4d, 3-((4-(Methylthio)benzylidene)hydrazono)indolin-2-one]	24 ± 2.61	> 50	
251 to 252		COc1cc(C)c(C=NN=C2C(=O)Nc3ccccc32)c(C)c1 [Compound 4h, 3-((4-Methoxy-2,6-dimethylbenzylidene)hydrazono)indolin-2-one]	25.78 ± 0.13	> 50	
267 to 268		O=C1Nc2ccccc2C1=NN=Cc1ccc(Br)cc1 [Compound 4g, 3-((4-Bromobenzylidene)hydrazono)indolin-2-one]	15.7 ± 0.78	> 50	
198 to 199		Cc1ccccc1C=NN=C1C(=O)Nc2ccccc21 [Compound 4a, 3-((2-Methylbenzylidene)hydrazono)indolin-2-one]	10.82 ± 0.05	> 50	
242 to 243		COc1ccc(C=NN=C2C(=O)Nc3ccccc32)c(O)c1 [Compound 4i, 3-((2-Hydroxy-4-methoxybenzylidene)hydrazono)indolin-2-one]	7.77 ± 0.008	> 50	
